Experimental data from patent US9139532B2, “Pyrazolyl guanidine F1F0-atpase inhibitors and therapeutic uses thereof” (Lycera Corporation, priority 2010, dated 2015).
Read-outs that look alike come from different tables or passages of the source.

Columns and labels:
[1] = target: T1, F1F0-ATPase (Bos taurus, UniProt P13621); assay: Inhibition of F1F0-ATPase activity in synthesizing ATP; assay type: biochemical; details: inhibition of ATP synthesis by F1F0-ATPase; read-out: ATP Syn IC50
T1 construct: from tissue

[2] = tested on: Ramos cells; assay: Cytotoxicity in Ramos cells; assay type: cell-based; details: cytotoxicity in Ramos cells, read-out: Ramos Cell EC50

IC50 [1] [µM] | SMILES | EC50 [2] [µM] | EC50 ([2]; Homo sapiens) [µM]
< 10 | COC[C@H](C)N/C(=N/C(=O)c1ccc(C(F)(F)F)cc1)Nc1cc(-c2ccc(OC)c(F)c2)n[nH]1 [Compound A-572] | > 10 | 
< 10 | CC(C)NC(=NC(=O)c1ccc(F)cc1)Nc1cc(-c2ccc(F)cc2)[nH]n1 [Compound A-512] |  | < 10
< 10 | O=C(N=C(Nc1cc(F)cc(Cl)c1)Nc1cc(-c2ccc(F)cc2)n[nH]1)c1cccc(C(F)(F)F)c1 [Compound A-450] |  | < 10
< 10 | O=C(N=C(Nc1cc(C(F)(F)F)n[nH]1)NC1CCCC1)c1ccc(F)cc1 [Compound A-548] |  | < 10
< 10 | COc1cccc(C(=O)/N=C(/NCC(C)C)Nc2cc(-c3ccc(F)cc3)[nH]n2)c1 [Compound A-171] | < 10 | 
< 10 | O=C(N=C(Nc1cc(-c2ccc(F)cc2)n[nH]1)NC1CCC1)c1ccc(F)c(F)c1 [Compound A-259] |  | < 10
< 10 | COc1ccc(C(=O)/N=C(\Nc2cc(-c3ccc(F)cc3)n[nH]2)NC(C)(C)C)c(F)c1 [Compound A-373] | < 10 | 
< 10 | CC(C)N/C(=N/C(=O)c1ccc(C(F)(F)F)cc1)Nc1cc(C(F)(F)F)n[nH]1 [Compound A-90] |  | < 10
< 10 | Cc1cc(C(=O)/N=C(/NCc2ccc(F)cc2Cl)Nc2cc(C(F)(F)F)[nH]n2)ccc1F [Compound A-555] | < 10 | 
< 10 | CC(C)(C)N/C(=N/C(=O)c1ccc(C(F)F)cc1)Nc1cc(C(F)(F)F)[nH]n1 [Compound A-64] |  | < 10
< 10 | O=C(N=C(Nc1cc(-c2ccc(Cl)cc2)n[nH]1)NC1CCCC1)c1ccc(C(F)(F)F)cc1 [Compound A-239] |  | > 10
< 10 | O=C(/N=C(\Nc1cc(C(F)(F)F)n[nH]1)NC1CCCOC1)c1ccc(C(F)(F)F)cc1 (centres unmarked) [Compound A-96] |  | < 10
< 10 | COC[C@H](C)N/C(=N/C(=O)c1ccc(F)cc1)Nc1cc(-c2ccc(C)c(F)c2)n[nH]1 [Compound A-205] |  | < 10
< 10 | O=C(/N=C(/NCc1ccccc1C(F)(F)F)Nc1cc(C(F)(F)F)n[nH]1)c1ccc(Cl)cc1 [Compound A-9] |  | < 10
> 10 | CCOCCCN/C(=N/C(=O)c1ccc(C(F)(F)F)cc1)Nc1cc(C)[nH]n1 [Compound A-184] | > 10 | 
< 10 | COc1ccc(-c2cc(N/C(=N\C(=O)c3ccc(F)c(F)c3)NCc3ccc(F)cc3Cl)[nH]n2)cc1 [Compound A-476] | > 10 | 
< 10 | CC(C)N/C(=N/C(=O)c1ccc(F)c(F)c1)Nc1cc(C(F)(F)F)n[nH]1 [Compound A-98] |  | < 10
< 10 | CC(C)(C)N/C(=N/C(=O)c1ccc(C(F)(F)F)cc1)Nc1cc(-c2ccccc2O)n[nH]1 [Compound A-563, (Z)—N-((tert-Butylamino)((3-(2-hydroxyphenyl)-1H-pyrazol-5-yl)amino)methylene)-4-(trifluoromethyl)benzamide] |  | < 10
< 10 | C[C@@H](N/C(=N\C(=O)c1ccc(F)c(F)c1)Nc1cc(C(F)(F)F)n[nH]1)C1CCCCC1 [Compound A-102] |  | < 10
< 10 | N#Cc1cccc(C(=O)/N=C(\Nc2cc(-c3ccc(Cl)cc3)n[nH]2)NC2CCC2)c1 [Compound A-307] | < 10 | 
< 10 | CC(C)CN/C(=N/C(=O)c1cccc([S+](C)[O-])c1)Nc1cc(-c2ccc(F)cc2)n[nH]1 (centres unmarked) [Compound A-576] | < 10 | 
< 10 | CCc1cc(C(=O)/N=C(\Nc2cc(-c3ccc(F)cc3)[nH]n2)NC(C)(C)C)ccn1 [Compound A-177] | < 10 | 

IC50 [1] [µM] | SMILES | EC50 [2] [µM] | EC50 ([2]; Homo sapiens) [µM]
< 10 | COc1ccccc1C(=O)N=C(NCc1ccc(F)cc1Cl)Nc1cc(C(F)(F)F)n[nH]1 [Compound A-543] |  | < 10
< 10 | CC(C)(C)N/C(=N/C(=O)c1ccc(F)c(F)c1)Nc1[nH]nc(-c2ccc(Cl)cc2)c1F [Compound A-162] | < 10 | 
< 10 | O=C(/N=C(\Nc1cc(C(F)(F)F)n[nH]1)NC1CCC1)c1ccc(Cl)c(F)c1 [Compound A-114] |  | < 10
< 10 | O=C(N=C(Nc1cc(-c2cc(F)cc(F)c2)n[nH]1)NC1CCC1)c1ccc(C(F)(F)F)cc1 [Compound A-298] |  | < 10
< 10 | N#Cc1cccc(C(=O)/N=C(\Nc2cc(-c3cc(F)cc(F)c3)n[nH]2)NC2CCCC2)c1 [Compound A-309] | < 10 | 
< 10 | CC(C)CN/C(=N/C(=O)c1cccc([S+](C)[O-])c1)Nc1cc(-c2ccc(F)cc2)n[nH]1 (centres unmarked) [Compound A-566, (Z)—N-(((3-(4-Fluorophenyl)-1H-pyrazol-5-yl)amino)(isobutylamino)methylene)-3-(methylsulfinyl)benzamide] |  | < 10
< 10 | O=C(/N=C(/NCc1ccc(F)c(Cl)c1)Nc1cc(C(F)F)[nH]n1)c1ccc(Cl)cc1 [Compound A-56] |  | > 10
< 10 | Cc1ccc(-c2cc(NC(=NC(=O)c3ccc(Cl)c(F)c3)NCc3ccc(F)cc3Cl)[nH]n2)cc1 [Compound A-474] |  | > 10
< 10 | Cc1cc(N/C(=N\C(=O)c2ccc(C(F)(F)F)cc2)NCC(C)C)n[nH]1 [Compound A-189] | < 10 | 
< 10 | O=C(/N=C(/Nc1cc(C(F)(F)F)n[nH]1)NC1CCCC1)c1ccc(Cl)c(F)c1 [Compound A-115] |  | < 10
< 10 | CC(C)CN/C(=N/C(=O)c1ccc(F)c(F)c1)Nc1cc(-c2ccc(Cl)cc2)n[nH]1 [Compound A-377] | < 10 | 
< 10 | COc1ccc(C(=O)/N=C(/NCC(C)(C)C)Nc2cc(-c3ccc(F)cc3)[nH]n2)cc1 [Compound A-515] | < 10 | 
< 10 | CC(C)N/C(=N/C(=O)c1cccc(F)c1)Nc1cc(-c2ccc(F)cc2)n[nH]1 [Compound A-390] | > 10 | 
< 10 | Cc1cc(N/C(=N\C(=O)c2ccc(F)c(F)c2)NC(C)(C)C)n[nH]1 [Compound A-192] | < 10 | 
< 10 | Cc1ccc(-c2cc(N/C(=N\C(=O)c3ccc(C(F)(F)F)cc3)NC(C)C)[nH]n2)cc1F [Compound A-328] | < 10 | 
> 10 | CN(/C(=N\C(=O)c1ccc(F)c(F)c1)NC(C)(C)C)c1cc(C(F)(F)F)[nH]n1 [Compound A-44] |  | > 10
< 10 | CCOCC(C)NC(=NC(=O)c1ccc(F)cc1)Nc1cc(-c2ccc(F)cc2)n[nH]1 (centres unmarked) [Compound A-269] | < 10 | 
< 10 | CC(C)(C)NC(=NC(=O)c1ccc(Cl)c(F)c1)Nc1cc(-c2cccc(Cl)c2)[nH]n1 [Compound A-468] |  | < 10
< 10 | O=C(/N=C(/Nc1cc(C(F)(F)F)n[nH]1)NC1CCS(=O)(=O)C1)c1ccc(Cl)cc1 (centres unmarked) [Compound A-112] |  | > 10
< 10 | CC(C)(C)c1cc(N/C(=N\C(=O)c2ccc(Cl)cc2)NC(C2CC2)C2CC2)n[nH]1 [Compound A-15] |  | < 10
< 10 | Cc1cc(N/C(=N\C(=O)c2ccc(F)c(F)c2)Nc2cc(F)cc(Cl)c2)n[nH]1 [Compound A-45] |  | > 10
